DC50 and Emax data for 13 compounds are collected here from patent US12486253B2, “Therapeutics for the degradation of mutant BRAF” (C4 THERAPEUTICS, INC., priority 2021, dated 2025).

The target of the assay is BRAF V600E (Homo sapiens, UniProt P15056, V600E). Briefly: HiBiT cellular BRAF^V600E degradation assay. Particulars: A375.10 cells, 24 h; for DC50: concentration at which 50% of total cellular BRAF^V600E is degraded; for Emax: residual protein remaining in the cell, read-out: HiBit 24 h Emax. Type of assay: cell-based.
Chain of BRAF V600E (P15056 whole entry V600E): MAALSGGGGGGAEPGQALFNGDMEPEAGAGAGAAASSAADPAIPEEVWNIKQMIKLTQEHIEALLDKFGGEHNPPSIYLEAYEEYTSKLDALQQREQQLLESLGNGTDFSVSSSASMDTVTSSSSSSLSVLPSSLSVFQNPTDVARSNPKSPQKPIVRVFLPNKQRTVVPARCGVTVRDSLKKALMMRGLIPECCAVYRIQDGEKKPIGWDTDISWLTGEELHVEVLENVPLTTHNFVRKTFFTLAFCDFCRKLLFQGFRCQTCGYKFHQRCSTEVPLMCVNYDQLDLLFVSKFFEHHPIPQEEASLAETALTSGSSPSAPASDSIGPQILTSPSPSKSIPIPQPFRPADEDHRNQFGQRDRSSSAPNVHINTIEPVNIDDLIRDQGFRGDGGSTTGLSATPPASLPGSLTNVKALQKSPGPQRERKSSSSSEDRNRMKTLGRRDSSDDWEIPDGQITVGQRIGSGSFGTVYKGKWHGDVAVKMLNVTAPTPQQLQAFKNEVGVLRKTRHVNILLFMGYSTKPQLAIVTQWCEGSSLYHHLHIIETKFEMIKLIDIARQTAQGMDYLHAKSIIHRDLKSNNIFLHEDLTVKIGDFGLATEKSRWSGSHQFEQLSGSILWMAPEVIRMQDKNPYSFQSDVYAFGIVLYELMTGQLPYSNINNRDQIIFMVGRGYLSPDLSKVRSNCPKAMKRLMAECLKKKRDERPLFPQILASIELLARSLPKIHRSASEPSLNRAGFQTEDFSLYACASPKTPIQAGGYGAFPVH

For the compound `CCN(C)S(=O)(=O)Nc1ccc(F)c(Oc2ccc3ncc(N4CCC5(CCN(C(=O)CN6CCC(c7ccc(NC8CCC(=O)NC8=O)cc7F)CC6)CC5)C4)nc3c2)c1C#N` (centres unmarked) [Example 219, 7-[2-cyano-3-[[ethyl(methyl)sulfamoyl]amino]-6-fluorophenoxy]-2-[8-[2-[4-[4-[(2,6-dioxopiperidin-3-yl)amino]-2-fluorophenyl]piperidin-1-yl]acetyl]-2,8-diazaspiro[4.5]decan-2-yl]quinoxaline], the DC50 (commonly the midpoint of the concentration-degradation curve) came out at 21.7 nM and the Emax (commonly the greatest response seen or fitted, relative to the assay's reference) amounted to 13.9%.
The like results for `CCN(C)S(=O)(=O)Nc1ccc(F)c(Oc2ccc3ncc(C4CCC5(CCN(C(=O)CN6CCC(c7ccc(NC8CCC(=O)NC8=O)cc7F)CC6)CC5)C4)nc3c2)c1C#N` (centres unmarked) [Example 220, 7-[2-cyano-3-[[ethyl(methyl)sulfamoyl]amino]-6-fluorophenoxy]-2-[8-[2-[4-[4-[(2,6-dioxopiperidin-3-yl)amino]-2-fluorophenyl]piperidin-1-yl]acetyl]-8-azaspiro[4.5]decan-3-yl]quinoxaline] were, in that order, 47 nM and 10.5%.
Take `CCN(C)S(=O)(=O)Nc1ccc(F)c(Oc2ccc3ncn([C@H]4COC5(CCN(C(=O)CC6(O)CCN(c7cc8c(cc7F)c(N7CCC(=O)NC7=O)nn8C)CC6)CC5)C4)c(=O)c3c2N)c1C#N` [Example 182, (3R)-3-[5-amino-6-[2-cyano-3-[[ethyl(methyl)sulfamoyl]amino]-6-fluorophenoxy]-4-oxoquinazolin-3-yl]-8-[2-[1-[3-(2,4-dioxo-1,3-diazinan-1-yl)-5-fluoro-1-methylindazol-6-yl]-4-hydroxypiperidin-4-yl]acetyl]-1-oxa-8-azaspiro[4.5]decane]: half-maximal degradation (DC50) was put at 16.2 nM and the Emax was 19.8%.
The like results for `N#Cc1c(NS(=O)(=O)N2CC[C@@H](F)C2)ccc(F)c1Oc1ccc2ncn(-c3cnc(N4CCN(C(=O)CN5CCC(c6ccc(N[C@@H]7CCC(=O)NC7=O)cc6F)CC5)CC4)nc3)c(=O)c2c1` [Example 124, (3R)—N-[2-cyano-3-[3-[2-[4-[2-[4-[4-[[(3R)-2,6-dioxopiperidin-3-yl]amino]-2-fluorophenyl]piperidin-1-yl]acetyl]piperazin-1-yl]pyrimidin-5-yl]-4-oxoquinazolin-6-yl]oxy-4-fluorophenyl]-3-fluoropyrrolidine-1-sulfonamide] were, in that order, 15.7 nM and 12%.
Taken in the same sequence, the figures for `CCN(C)S(=O)(=O)Nc1ccc(F)c(Oc2ccc3ncn([C@H]4CCC5(CCN(C(=O)CN6CCN(c7ccc(NC8CCC(=O)NC8=O)cc7F)CC6)CC5)C4)c(=O)c3c2)c1C#N` (stereo partly drawn) [Example 48, 6-[2-cyano-3-[[ethyl(methyl)sulfamoyl]amino]-6-fluorophenoxy]-3-[(3S)-8-[2-[4-[4-[(2,6-dioxopiperidin-3-yl)amino]-2-fluorophenyl]piperazin-1-yl]acetyl]-8-azaspiro[4.5]decan-3-yl]-4-oxoquinazoline] were 34.5 nM and 15.6%.
Taken in the same sequence, the figures for `CCN(C)S(=O)(=O)Nc1ccc(F)c(Oc2ccc3ncn([C@H]4CCC5(CCN(C(=O)CC6(O)CCN(c7cc8c(cc7F)c(N7CCC(=O)NC7=O)nn8C)CC6)CC5)C4)c(=O)c3c2)c1C#N` [Example 159, 6-[2-cyano-3-[[ethyl(methyl)sulfamoyl]amino]-6-fluorophenoxy]-3-[(3S)-8-[2-[1-[3-(2,4-dioxo-1,3-diazinan-1-yl)-5-fluoro-1-methylindazol-6-yl]-4-hydroxypiperidin-4-yl]acetyl]-8-azaspiro [4.5]decan-3-yl]-4-oxoquinazoline] were 6.98 nM and 18.8%.
In the case of `N#Cc1c(NS(=O)(=O)C2CC2)ccc(F)c1Oc1ccc2ncn(-c3cnc(N4CCN(C(=O)CN5CCC(c6ccc(N[C@@H]7CCC(=O)NC7=O)cc6F)CC5)CC4)nc3)c(=O)c2c1` [Example 115, N-[2-cyano-3-[3-[2-[4-[2-[4-[4-[[(3R)-2,6-dioxopiperidin-3-yl]amino]-2-fluorophenyl]piperidin-1-yl]acetyl]piperazin-1-yl]pyrimidin-5-yl]-4-oxoquinazolin-6-yl]oxy-4-fluorophenyl]cyclopropanesulfonamide], the DC50 is 16.1 nM and the Emax amounted to 12.8%.
Take `N#Cc1c(NS(=O)(=O)C2CCC2)ccc(F)c1Oc1ccc2ncn(-c3cnc(N4CCN(C(=O)CN5CCC(c6ccc(N[C@H]7CCC(=O)NC7=O)cc6F)CC5)CC4)nc3)c(=O)c2c1` [Example 132, N-[2-cyano-3-[3-[2-[4-[2-[4-[4-[[(3S)-2,6-dioxopiperidin-3-yl]amino]-2-fluorophenyl]piperidin-1-yl]acetyl]piperazin-1-yl]pyrimidin-5-yl]-4-oxoquinazolin-6-yl]oxy-4-fluorophenyl]cyclobutanesulfonamide]: the DC50 stood at 13.8 nM and the Emax turned out to be 11.1%.
Consider `CCN(C)S(=O)(=O)Nc1ccc(F)c(Oc2ccc3ncn(C4COC5(CCN(C(=O)CN6CCC(c7ccc(NC8CCC(=O)NC8=O)cc7F)CC6)CC5)C4)c(=O)c3c2)c1C#N` (centres unmarked) [Example 24, 3-[6-[2-cyano-3-[[ethyl(methyl)sulfamoyl]amino]-6-fluorophenoxy]-4-oxoquinazolin-3-yl]-8-[2-[4-[4-[(2,6-dioxopiperidin-3-yl)amino]-2-fluorophenyl]piperidin-1-yl]acetyl]-1-oxa-8-azaspiro[4.5]decane], for which the DC50 turned out to be 19.5 nM and the Emax came to 10.8%.
Taken in the same sequence, the figures for `CCN(C)S(=O)(=O)Nc1ccc(F)c(Nc2ccc3ncn([C@H]4COC5(CCN(C(=O)CC6(O)CCN(c7cc8c(cc7F)c(N7CCC(=O)NC7=O)nn8C)CC6)CC5)C4)c(=O)c3c2)c1C#N` (single isomer, unassigned) [Example 178] were 6.13 nM and 19.1%.
In the case of `CCN(C)S(=O)(=O)Nc1ccc(F)c(Oc2ccc3ncn([C@H]4COC5(CCN(C(=O)CN6CCCC(c7ccc(NC8CCC(=O)NC8=O)cc7F)CC6)CC5)C4)c(=O)c3c2)c1C#N` (stereo partly drawn) [Example 76, (3R)-3-[6-[2-cyano-3-[[ethyl(methyl)sulfamoyl]amino]-6-fluorophenoxy]-4-oxoquinazolin-3-yl]-8-[2-[4-[4-[(2,6-dioxopiperidin-3-yl)amino]-2-fluorophenyl]azepan-1-yl]acetyl]-1-oxa-8-azaspiro[4.5]decane], it took 50.1 nM to reach half-maximal degradation (DC50) and the Emax was 13.2%.
For the compound `CCN(C)S(=O)(=O)Nc1ccc(F)c(Oc2ccc3ncn([C@H]4COC5(CCN(C(=O)CC6(O)CCN(c7cc8c(cc7F)c(N7CCC(=O)NC7=O)nn8C)CC6)CC5)C4)c(=O)c3c2O)c1C#N` [Example 186, (3R)-3-[6-[2-cyano-3-[[ethyl(methyl)sulfamoyl]amino]-6-fluorophenoxy]-5-hydroxy-4-oxoquinazolin-3-yl]-8-[2-[1-[3-(2,4-dioxo-1,3-diazinan-1-yl)-5-fluoro-1-methylindazol-6-yl]-4-hydroxypiperidin-4-yl]acetyl]-1-oxa-8-azaspiro[4.5]decane], the DC50 was determined as 16.3 nM and the Emax came to 25.1%.
Consider `CC(C)S(=O)(=O)Nc1ccc(F)c(Oc2ccc3ncn([C@H]4COC5(CCN(C(=O)CN6CCC(c7ccc(NC8CCC(=O)NC8=O)cc7F)CC6)CC5)C4)c(=O)c3c2)c1C#N` (stereo partly drawn) [Example 61, N-[2-cyano-3-[3-[(3R)-8-[2-[4-[4-[(2,6-dioxopiperidin-3-yl)amino]-2-fluorophenyl]piperidin-1-yl]acetyl]-1-oxa-8-azaspiro[4.5]decan-3-yl]-4-oxoquinazolin-6-yl]oxy-4-fluorophenyl]propane-2-sulfonamide], for which half-maximal degradation (DC50) was put at 21.1 nM and the Emax came to 8.44%.
